The values that follow come from patent US20240209456A1, “METHODS AND COMPOSITIONS RELATED TO CELL-CYCLE RNA's” (BETH ISRAEL DEACONESS MEDICAL CENTER, priority 2021, published 2024).

Entries after “also recorded” stand apart in the source; their conditions may differ.

The subject of one assay is acH2A.Z. Put plainly: nascent ChIP-qPCR (nasChIP) with acH2A.Z antibody. The assay is classed as cell-based, human. As to conditions: for restoration of acH2A.Z at c-MYC locus after DRB reversal: HL-60, 2 hrs after DRB wash-out, MG149 200 μM, TH1834 500 μM; for restoration of acH2A.Z enrichment at PU1 locus after DRB reversal: HL-60, MG149 and TH1834 treatments. On the procedure:
(§1) To confirm the results of the ChIP-Seq, and to track the deposition of the H2A.Z, acH2A.Z nascent chromatin immunoprecipitation (nasChIP-PCR) was performed with the antibodies to H2A.Z, acH2A.Z and TIP60, as nasChIP-PCR can be used to track histone deposition. Cells were synchronized with a double thymidine block, released into S Phase and treated with DRB for 2 hrs. The medium was supplemented with the EdU DNA analog to enable collection of nascent chromatin DNA (FIG. 4A). […] The results of these experiments provide an important link between the suppressed c-MYC SPEARs expression and the reduced levels of the replacement histone H2A.Z, as an even greater degree of the loss of the acetylated acH2A.Z forms at the TSS of the c-MYC locus. Similar results were obtained for another gene locus, PU1 (FIG. 4F, right panels).
(§2) Cells were synchronized with a double thymidine block and released into S Phase with DMSO/DRB added. After 2 hours (during which H2A.Z levels remained unaffected, but SPEARs and mRNA levels drop, see FIG. 10A), cells were washed and then incubated for a further 2 hours with or without the TIP60 inhibitors. This interval is sufficient for the levels of both the c-MYC mRNAs and its SPEARs to be restored when the TIP60 inhibitors are absent (results shown in FIG. 11B). The medium was supplemented with the EU RNA and EdU DNA analogs to enable collection of nascent RNAs and newly formed chromatin that had escaped the drug-induced inhibition of transcription or acetylation. After 2 hours with the TIP60 inhibitors present (MG-149 at 200 μM and TH1834 at 500 μM), during which the levels of acH2A.Z dropped (see FIG. 11A), cells were crosslinked and subjected to nasChIP and nascent RNA expression analyses (nas-qRT-PCR) (FIG. 6B). Collected RNAs were biotinylated by click chemistry, isolated on streptavidin beads and analyzed by nas-qRT-PCR (see “Methods” below for details; FIG. 8A; bottom panel).
(§3) To further confirm that SPEARs realize their c-MYC regulatory function directly through the TIP60/acH2A.Z pathway, the differences in chromatin occupancy of H2A.Z, acH2A.Z and TIP60 were assessed after inhibition of transcription (“DRB”), reversal of inhibition (“DRB REV”) and reversal of inhibition in the presence of the two TIP60 inhibitors, using nasChIP-qPCR. […] By analyzing the nascent RNAs and chromatin, only the immediate changes in c-MYC expression and TIP60, acH2A.Z and H2A.Z occupancy were examined within the locus as imposed by the inhibition of transcription and/or acetylation. […] When the two HAT inhibitors are present, the reversal of transcriptional inhibition can only restore the enrichment levels of the unmodified H2A.Z and TIP60 (FIG. 6D; left and right panels), but not the levels of acH2A.Z (middle panel). […] Furthermore, no enrichments of H2A.Z, acH2A.Z or TIP60 was detected within the Gene Desert locus (FIG. 11C). […] Similar results were obtained for the PU.1 locus (FIG. 11D and FIG. 11E). These findings using nasChIP are in line with the general trend obtained globally by ChIP-Seq. (FIG. 4C).
(§4) Nascent RNA/DNA capture was performed using Click-iT Nascent RNA Capture Kit (ThermoFisher) according to the manufacturer's instructions with minor modifications. Briefly, 1. Labeling the cells with EU/EdU. 200 mM EU or 30 mM EdU stock solutions were added to the cells, to a final concentration 0.5 mM or 30 μM, respectively. 2. Incubation. The cells were incubated for 1 or 2 hours. 3. RNA/DNA isolation. The cells were harvested and the RNA/DNA were isolated and dissolved in 14 μL of H2O. 4. Biotinylation of RNA/DNA by Click reaction. Click-iT reaction cocktail (50 μL per reaction) was prepared accordingly to manufacturer's instructions: a mixture containing 1× Click-iT EU buffer; 2 mM CuSO4; 1 mM Biotin azide; 13.25 μL of the isolated RNA; 10 mM Click-iT reaction buffer additive 1; 12 mM Click-iT reaction buffer additive 2 was prepared. After adding each component, the reaction cocktail was gently mixed by vortexing. […]
On the technique in general: Quantitative PCR measures a nucleic acid by following its amplification.

The test system of a further assay is H2A.Z. Put plainly: nascent ChIP-qPCR (nasChIP) with H2A.Z antibody. The class given is cell-based, human. As to conditions: for restoration of H2A.Z distribution at c-MYC locus after DRB reversal: HL-60, 2 hrs after DRB wash-out, MG149 200 μM, TH1834 500 μM. How it is done: as §1
Cells were synchronized with a double thymidine block and released into S Phase with DMSO/DRB added. After 2 hours (during which H2A.Z levels remained unaffected, but SPEARs and mRNA levels drop, see FIG. 10A), cells were washed and then incubated for a further 2 hours with or without the TIP60 inhibitors. This interval is sufficient for the levels of both the c-MYC mRNAs and its SPEARs to be restored when the TIP60 inhibitors are absent (results shown in FIG. 11B). […] Collected RNAs were biotinylated by click chemistry, isolated on streptavidin beads and analyzed by nas-qRT-PCR (see “Methods” below for details; FIG. 8A; bottom panel).
To further confirm that SPEARs realize their c-MYC regulatory function directly through the TIP60/acH2A.Z pathway, the differences in chromatin occupancy of H2A.Z, acH2A.Z and TIP60 were assessed after inhibition of transcription (“DRB”), reversal of inhibition (“DRB REV”) and reversal of inhibition in the presence of the two TIP60 inhibitors, using nasChIP-qPCR. […] Furthermore, no enrichments of H2A.Z, acH2A.Z or TIP60 was detected within the Gene Desert locus (FIG. 11C). […]

Another assay addresses TIP60 (Homo sapiens, UniProt Q92993). Put plainly: nascent ChIP-qPCR (nasChIP) with TIP60 antibody. The assay is classed as cell-based. On the set-up: endogenous in cells; host or cells: HL-60. As to conditions: for restoration of TIP60 at c-MYC locus after DRB reversal: HL-60, 2 hrs after DRB wash-out, MG149 200 μM, TH1834 500 μM; for restoration of TIP60 enrichment at PU1 locus after DRB reversal: HL-60, MG149 and TH1834 treatments. How it is done: as §1, §2, §3, §4

[1] abbreviates: HL-60 released into S Phase, DRB 2 hrs.

TIP60, sequence (Q92993 whole entry): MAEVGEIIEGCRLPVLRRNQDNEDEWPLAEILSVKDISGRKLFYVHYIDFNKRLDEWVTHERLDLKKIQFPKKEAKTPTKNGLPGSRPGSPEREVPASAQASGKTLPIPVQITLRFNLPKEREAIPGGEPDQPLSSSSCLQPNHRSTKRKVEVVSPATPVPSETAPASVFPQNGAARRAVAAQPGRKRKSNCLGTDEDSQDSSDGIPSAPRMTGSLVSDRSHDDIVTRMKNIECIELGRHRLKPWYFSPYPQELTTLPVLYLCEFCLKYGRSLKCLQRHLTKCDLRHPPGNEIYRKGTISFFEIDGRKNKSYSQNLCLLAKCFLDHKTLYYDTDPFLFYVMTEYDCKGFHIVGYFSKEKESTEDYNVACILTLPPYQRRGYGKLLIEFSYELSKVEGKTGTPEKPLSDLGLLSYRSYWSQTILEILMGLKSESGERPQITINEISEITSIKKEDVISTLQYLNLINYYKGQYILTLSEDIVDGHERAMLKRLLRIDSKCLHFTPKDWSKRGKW

`OC[C@H]1O[C@@H](n2cnc3cc(Cl)c(Cl)cc32)[C@H](O)[C@@H]1O` [DRB, 5,6-Dichlorobenzimidazole 1-β-D-ribofuranoside]: the “acH2A.Z enrichment at PU1 locus” value in the assay on acH2A.Z (HL-60, DRB treatment) is given as “loss”. In the assay with acH2A.Z (setting [1]), the “acH2A.Z enrichment at c-MYC locus” value was “diminished enrichment and loss”. In the assay on H2A.Z (setting [1]), the “H2A.Z enrichment at c-MYC locus” value is on record as “diminished enrichment; also recorded: partial loss”. In addition, the “TIP60 enrichment at PU1 locus” value at TIP60 (HL-60, DRB treatment) is reported as “loss”. The “TIP60 enrichment at c-MYC locus” value on TIP60 (setting [1]) was “diminished enrichment and loss”.
For `CCCCCCCc1ccc(CCc2cccc(O)c2C(=O)O)cc1` [MG149], in the assay on acH2A.Z, the “restoration of acH2A.Z at c-MYC locus after DRB reversal” value is “prevents the restoration” and the “restoration of acH2A.Z enrichment at PU1 locus after DRB reversal” value is “preventing the restoration”. In addition, the “restoration of H2A.Z distribution at c-MYC locus after DRB reversal” value in the assay with H2A.Z was “only slightly affecting”. Moreover, on TIP60, the “restoration of TIP60 at c-MYC locus after DRB reversal” value is on record as “only slightly affecting” and the “restoration of TIP60 enrichment at PU1 locus after DRB reversal” value is “without affecting”.
As to `O=C(O)Cn1nnc(-c2ccc(CN(CCCCOc3ccc(CN4CCCC4)cc3)CCc3ccccc3)cc2)n1` [TH1834], in the assay on acH2A.Z, the “restoration of acH2A.Z at c-MYC locus after DRB reversal” value is given as “prevents the restoration” and the “restoration of acH2A.Z enrichment at PU1 locus after DRB reversal” value is reported as “preventing the restoration”. Besides, the “restoration of H2A.Z distribution at c-MYC locus after DRB reversal” value with H2A.Z is reported as “only slightly affecting”. On TIP60, the “restoration of TIP60 at c-MYC locus after DRB reversal” value was “only slightly affecting” and the “restoration of TIP60 enrichment at PU1 locus after DRB reversal” value is reported as “without affecting”.
